Results from patent publication US20060014826A1, “Dioxocyclohexane carboxylic acid phenyl amide derivatives for modulating voltage-gated potassium channels and pharmaceutical compositions containing the same” (Wyeth, priority 2004, published 2006).

Legend:
[1] = biological target: T1, human Kv1.1/Kvβ1 potassium ion channel complex (Homo sapiens, UniProt Q09470+Q14722); experiment: Inhibiting the inactivation of Kv1.1/Kvβ1 potassium ion channel complex, voltage clamp current recordings in Xenopus oocytes; type: cell-based; conditions: relative to control oocytes without test compound, read-out: Percent Increase in Steady State Current (@ concentration shown in parentheses)
T1 construct: expressed in transfected cells; host or cells: Xenopus oocytes injected with cRNA
T1 sequence (Q09470 whole entry): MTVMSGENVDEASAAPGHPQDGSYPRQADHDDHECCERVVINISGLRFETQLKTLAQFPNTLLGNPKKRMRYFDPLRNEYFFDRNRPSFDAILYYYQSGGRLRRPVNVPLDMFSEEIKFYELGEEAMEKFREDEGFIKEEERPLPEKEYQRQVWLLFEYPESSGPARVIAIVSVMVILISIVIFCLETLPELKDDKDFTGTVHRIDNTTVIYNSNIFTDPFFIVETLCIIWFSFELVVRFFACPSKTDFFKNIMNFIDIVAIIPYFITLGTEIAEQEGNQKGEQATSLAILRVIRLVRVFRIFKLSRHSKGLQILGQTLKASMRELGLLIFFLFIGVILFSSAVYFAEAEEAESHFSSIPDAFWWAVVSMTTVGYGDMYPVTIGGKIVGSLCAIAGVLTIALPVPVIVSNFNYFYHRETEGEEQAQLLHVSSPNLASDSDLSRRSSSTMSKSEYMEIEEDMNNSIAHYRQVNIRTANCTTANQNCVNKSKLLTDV
T1 sequence (Q14722 whole entry): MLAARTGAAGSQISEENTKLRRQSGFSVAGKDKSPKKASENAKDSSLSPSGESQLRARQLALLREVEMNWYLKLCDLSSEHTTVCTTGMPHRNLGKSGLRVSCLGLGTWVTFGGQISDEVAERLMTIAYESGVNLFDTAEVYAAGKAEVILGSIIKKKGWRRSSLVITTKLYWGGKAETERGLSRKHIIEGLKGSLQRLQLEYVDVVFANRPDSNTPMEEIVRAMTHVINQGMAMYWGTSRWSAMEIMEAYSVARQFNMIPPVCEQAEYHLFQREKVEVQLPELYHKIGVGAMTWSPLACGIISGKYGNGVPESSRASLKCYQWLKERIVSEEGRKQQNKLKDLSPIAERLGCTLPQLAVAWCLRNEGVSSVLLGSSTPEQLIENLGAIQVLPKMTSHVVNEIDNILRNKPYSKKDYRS
Experimental: Compounds useful in this invention were examined for their ability to inhibit the inactivation of the human Kv1.1/Kvβ1 potassium ion channel complex in vitro using electrophysiological current recordings on inactivating Kv1.1/Kvβ1channels expressed in Xenopus oocytes. The following procedure was used.
Xenopus oocytes were harvested from frogs under general anesthesia using aseptic techniques. Oocytes were treated with 2 mg/ml collagenase for 1-1.5 hr, defolliculated, and injected with 40 nL cRNA (a mixture of hKv1.1 and hKvβ1) produced using standard molecular biological techniques (Sambrook, et al., 1989, Molecular Cloning: A Laboratory Manual). The concentration of hKv1.1/hKvβ1 cRNA varies, but was generally about 50 ng/μL hKv1.1 and […] hkβ1.
Currents were recorded using standard voltage clamp amplifiers at room temperature. Recordings were performed in the bath solution “ND-96” containing 96 mM NaCl, 2 mM KCl, 1 mm CaCl2, 1 mM MgCl2, 10 mM HEPES and […] Gentamycin (pH=7.6). The pipette (electrode) solution generally consisted of 3 mM KCl. Electrodes were made from WPI TW150F-4 borosilicate glass (or equivalent) and typically had resistances of 0.5-1.5 Mohms. The standard current—voltage (IV) pulse protocol consisted of voltage steps from −60 mV to +50 mV, in 10 mV increments for 200 ms, at a frequency of one IV set per 2 minutes. Data were digitized and analyzed by standard software packages.
Test compounds where first dissolved in DMSO to an initial concentration of 1-100 mM. Working dilutions of 1:2000 to 1:500 were made in the bath solution for final concentrations in the micromolar range. The bath solutions containing the test compounds were applied by bath perfusion using gravity or pump-driven flow. A minimum of 2 mL (10 times the bath volume) over 3 minutes were flowed for each compound concentration tested. Data were averaged across at least 3 cells tested for each concentration.
Test compounds were examined for their ability to inhibit the inactivation of the steady state portion of the IV curve.

[2] = test system: seizures induced by administration of pentylenetetrazole (PTZ); experiment: Inhibiting PTZ induced seizures; type: in vivo; conditions: Mus musculus; adult mice, i.p. pretreatment 30 min before PTZ 85 mg/kg s.c., 30 minute test period; read-out: ED50, Dose Range
Experimental: Compounds useful in this invention were also examined for their anticonvulsant activity in vivo by assessing their ability to inhibit the seizures induced by administration of pentylenetetrazole (PTZ). Adult mice were pretreated intraperitoneally with the test compound. Thirty minutes later these animals were challenged with pentylenetetrazole (85 mg/kg, s.c.) and observed for onset of seizures during a 30 minute test period.

[3] = test system: mouse 4-Plate model (punished crossings); experiment: Anxiolytic activity, mouse 4-Plate model; type: in vivo, male Swiss Webster mice
Experimental: Anxiolytic activity of the compounds of this invention was determined using the mouse 4-Plate model, originally described by Boissier et al. (Eur. J. Pharmacol. (1968) 4:145-151). The test procedure used is described in further detail below. Anxiolytic efficacy is measured as the ability of the test compound to increase the number of times that an animal will accept a mild punishment (in the form of a foot shock) in order to explore its environment. A number of clinically effective treatments for anxiety from multiple pharmacological classes are effective in this model (Hascoet et al., Pharmacol. Biochem. Beh. (2000) 65:339-344).
The compound of Example 8 was examined in the 4-Plate model.
Experimental Protocol for the 4-Plate Model
The “four-plate” apparatus consisted of a Plexiglas cage (18×25×16 cm) floored by four identical rectangular metal plates (8×11 cm) separated from one another by a gap of 4 mm. The plates were connected to a device that generated electric shocks (0.8 mA, 0.5 sec). […] Test animals (male Swiss Webster mice) were group housed with ad-lib access to food and water. Compounds were administered at the appropriate dose ip. 30 min prior to testing. Control animals were given the vehicle without drug. Animals were then placed in the 4-plate apparatus and allowed to habituate for 18 seconds. Following the 18-sec habituation period, an electric shock (0.8 mA, 0.5 sec) was delivered to the mouse when crossing from one plate to another. No shocks were delivered during the 3 seconds following shock administration. The number of punished crossings was recorded during a 1-min testing period. Data were expressed as the percent change in the number of punished crossings relative to control.

SMILES | activation at 100 µM [1] [%] | ED50 [2] [mg/kg] | melting point [°C] | activation at 50 µM [1] [%] | other results
CC1(C)CC(=O)C(C(=O)Nc2cccc(C(F)(F)F)c2)C(=O)C1 [Example 8, N-(3-trifluoromethylphenyl)-4,4-dimethyl-2,6-dioxocyclohexanecarboxamide] | 40 | 32 | 116 to 117 |  | increase in the number of punished crossings ([3]; 56 mg/kg ip): 31%; % Time Spent in Open Zones (Relative to Control) ([3]; 60 mg/kg ip., 30 min prior to testing): 131%
CC1(C)CC(=O)C(C(=O)Nc2ccc(Cl)c(Cl)c2)C(=O)C1 [Example 2, N-(3,4-dichlorophenyl)-4,4-dimethyl-2,6-dioxocyclohexanecarboxamide] | 75 | 50 | 124 to 129 |  | 
CC1(C)CC(=O)C(C(=O)Nc2cc(C(F)(F)F)cc(C(F)(F)F)c2)C(=O)C1 [Example 9, N-[3,5-bis(trifluoromethyl)phenyl]-4,4-dimethyl-2,6-dioxocyclohexanecarboxamide] |  | 55 |  | 20 | 
CC1(C)CC(=O)C(C(=O)Nc2cccc(Cl)c2)C(=O)C1 [Example 1, N-(3-chlorophenyl)-4,4-dimethyl-2,6-dioxocyclohexanecarboxamide] | 21 | 30 | 89 to 91 |  | 
Cc1nnc2n1-c1ccc(Cl)cc1C(c1ccccc1)=NC2 [Alprazolam, reference compound] |  |  |  |  | Punished crossings (% of control) ([3]; 0.3 mg/kg ip., 30 min prior to testing): 170%; increase in the number of punished crossings ([3]; at therapeutically relevant doses): 70%
CCC1(C)CC(=O)C(C(=O)Nc2cc(C(F)(F)F)cc(C(F)(F)F)c2)C(=O)C1 (stereo not drawn) [Example 18, N-(3,5-bis-trifluoromethylphenyl)-4-ethyl-4-methyl-2,6-dioxocyclohexanecarboxamide] |  |  | 72 to 73 | 106 | 
CCC1(C)CC(=O)C(C(=O)Nc2cccc(C(F)(F)F)c2)C(=O)C1 (stereo not drawn) [Example 13, N-(3-trifluoromethylphenyl)-4-ethyl-4-methyl-2,6-dioxocyclohexanecarboxamide] |  |  | 81 to 82 | 9 | 
CCC1(C)CC(=O)C(C(=O)Nc2ccc(Cl)c(Cl)c2)C(=O)C1 (stereo not drawn) [Example 15, N-(3,4-dichlorophenyl)-4-ethyl-4-methyl-2,6-dioxocyclohexanecarboxamide] |  |  | 74 to 75 | 64 | 
